For 33 molecules, IC50 results are on record in ChEMBL document CHEMBL2424591 (Bioorg Med Chem, 2013).

For orientation: IC50 means the concentration needed to halve the response being measured. A high value points to weaker potency in that assay.

The test addresses T1, Ribosyldihydronicotinamide dehydrogenase [quinone] (Homo sapiens, UniProt P16083).
T1 sequence (P16083 whole entry): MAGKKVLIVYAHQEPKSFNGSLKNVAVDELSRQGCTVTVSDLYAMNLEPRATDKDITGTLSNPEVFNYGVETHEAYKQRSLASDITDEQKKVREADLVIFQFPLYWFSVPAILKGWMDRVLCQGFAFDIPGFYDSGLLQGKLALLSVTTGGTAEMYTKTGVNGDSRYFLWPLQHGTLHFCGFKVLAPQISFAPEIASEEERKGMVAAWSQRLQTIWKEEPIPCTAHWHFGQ
Kind of test: Inhibition of human quinone reductase 2 expressed in Escherichia coli BL21(DE3) using N-methyldihydronicotinamide as co-substrate.
Molecule `COc1cc(/C=C/c2ccc(F)cc2)cc(OC)c1` yielded an IC50 of 4.6 µM.

Molecule `COc1ccc(/C=C/c2ccc(O)c(O)c2)cc1` registered an IC50 of 9.3 µM. This IC50 is about 2-fold higher than that of the molecule before.

In the case of `COc1ccc(/C=C/c2ccc3ccccc3c2)cc1OC`, the IC50 worked out at 5.5 µM.

As to `COc1ccc(/C(C)=C/c2ccc(OC)c(OC)c2)cc1`, the IC50 was determined as 6.7 µM. This IC50 and that of the molecule before are within 1.5-fold of each other.

`COc1cc(/C=C(\C)c2ccc(OC)c(OC)c2)cc(OC)c1`: the IC50 worked out at 9.9 µM.

`N#C/C(=C\c1cc(O)cc(O)c1)c1ccc(O)cc1` came in with an IC50 of 5.9 µM.

Turning to `OC/C(=C\c1cc(O)cc(O)c1)c1ccc(O)cc1`, the midpoint of inhibition, the IC50, lay at 5.1 µM.

In turn, `COc1ccc(/C(C=O)=C/c2cc(OC)cc(OC)c2)cc1` registered an IC50 of 24.2 µM.

The molecule `NC(=O)/C(=C\c1cc(O)cc(O)c1)c1ccc(O)cc1` showed an IC50 of 9.3 µM.

Turning to `O=C/C(=C/c1cc(O)cc(O)c1)c1ccc(O)cc1`, the IC50 came out at 25.5 µM.

Consider `COc1ccc(/C(=C\c2cc(OC)cc(OC)c2)CO)cc1`, for which half-maximal inhibition (IC50) required 27.5 µM.

`O=C(Nc1ccc(O)cc1)c1cc(O)cc(O)c1` had an IC50 of 27.6 µM. This IC50 and that of the molecule before are within 1.5-fold of each other.

Consider `O=C(Nc1cc(O)cc(O)c1)c1ccc(O)cc1`, for which the IC50 was 16.8 µM.

Take `Oc1ccc(/C=C/c2ccc(O)c(O)c2)cc1`: the IC50 was determined as 6 µM.

As to `Oc1ccc(/C=C/c2cccc(F)c2)cc1O`, half-maximal inhibition (IC50) required 20.8 µM. Against the preceding molecule, the IC50 is about 3.5-fold higher.

Molecule `CC/C(=C\c1ccc(N(C)C)cc1)c1cc(O)cc(O)c1` displayed a half-inhibitory concentration (IC50) of 10.9 µM.

`CC/C(=C\c1cc(OC)cc(OC)c1)c1ccc(OC)c(OC)c1` came in with an IC50 of 16.3 µM.

The molecule `COc1cc(/C=C/c2ccc3ccccc3c2)cc(OC)c1` displayed an IC50 of 0.73 µM.

Molecule `COc1cccc(/C=C/c2ccc(OC)c(OC)c2)c1` showed an IC50 of 6.8 µM.

`COc1ccc(/C=C/c2ccc(N(C)C)cc2)cc1OC` had an IC50 of 13 µM.

Turning to `C/C(=C\c1cc(O)cc(O)c1)c1ccc(O)cc1`, inhibition was half-maximal at 39 µM (IC50).

As to `Oc1ccc(/C=C/c2ccc(C(F)(F)F)cc2)cc1O`, the IC50 is below 14.2 µM.

For `COc1ccc(/C=C(/c2cc(OC)cc(OC)c2)C(F)(F)F)cc1`, half-maximal inhibition (IC50) required 13 µM.

Take `COc1ccc(/C(C)=C/c2cc(O)cc(O)c2)cc1`: the IC50 was 12 µM.

`COc1ccc(/C(C)=C/c2cc(OC)cc(OC)c2)cc1` returned an IC50 of 20.1 µM.

`COc1ccc(/C(C)=C/c2cc(O)cc(O)c2)cc1OC` showed a concentration for half-maximal inhibition (IC50) of 33.7 µM.

On to `COc1ccc(/C=C(/c2cccc(C(F)(F)F)c2)C(F)(F)F)cc1OC`, for which the IC50 is 0.18 µM.

`C/C(=C\c1ccc(C(F)(F)F)cc1)c1ccc(O)cc1` returned an IC50 of 2.8 µM.

Molecule `C/C(=C\c1ccc(O)cc1)c1cc(O)cc(O)c1` came in with an IC50 of 4.8 µM. This IC50 lies about 1.7-fold higher than the previous one.

`COc1ccc(/C(C#N)=C/c2cc(OC)cc(OC)c2)cc1`: the IC50 was determined as 31.6 µM.

The molecule `COc1cc(/C=C/c2ccc(OC)c(OC)c2)cc(OC)c1` [(E)-3,4,3',5'-TETRAMETHOXYSTILBENE] had an IC50 of 37.1 µM.

For the molecule `COc1cc(/C=C/c2ccc(O)cc2)cc(OC)c1` [PTEROSTILBENE], the IC50 stood at 5.1 µM.

In turn, `COc1ccc(/C=C/c2cc(OC)cc(OC)c2)cc1` [TRISMETHOXYRESVERATROL] came in with an IC50 of 14.6 µM.
